We go through 6 compounds from patent US7488740B2, “Substituted quinolin-4-ylamine analogues” (Neurogen Corporation, priority 2003, dated 2009).

Where only a bound is given, the exact number is not on record here.

T1 sequence (Q8NER1 whole entry): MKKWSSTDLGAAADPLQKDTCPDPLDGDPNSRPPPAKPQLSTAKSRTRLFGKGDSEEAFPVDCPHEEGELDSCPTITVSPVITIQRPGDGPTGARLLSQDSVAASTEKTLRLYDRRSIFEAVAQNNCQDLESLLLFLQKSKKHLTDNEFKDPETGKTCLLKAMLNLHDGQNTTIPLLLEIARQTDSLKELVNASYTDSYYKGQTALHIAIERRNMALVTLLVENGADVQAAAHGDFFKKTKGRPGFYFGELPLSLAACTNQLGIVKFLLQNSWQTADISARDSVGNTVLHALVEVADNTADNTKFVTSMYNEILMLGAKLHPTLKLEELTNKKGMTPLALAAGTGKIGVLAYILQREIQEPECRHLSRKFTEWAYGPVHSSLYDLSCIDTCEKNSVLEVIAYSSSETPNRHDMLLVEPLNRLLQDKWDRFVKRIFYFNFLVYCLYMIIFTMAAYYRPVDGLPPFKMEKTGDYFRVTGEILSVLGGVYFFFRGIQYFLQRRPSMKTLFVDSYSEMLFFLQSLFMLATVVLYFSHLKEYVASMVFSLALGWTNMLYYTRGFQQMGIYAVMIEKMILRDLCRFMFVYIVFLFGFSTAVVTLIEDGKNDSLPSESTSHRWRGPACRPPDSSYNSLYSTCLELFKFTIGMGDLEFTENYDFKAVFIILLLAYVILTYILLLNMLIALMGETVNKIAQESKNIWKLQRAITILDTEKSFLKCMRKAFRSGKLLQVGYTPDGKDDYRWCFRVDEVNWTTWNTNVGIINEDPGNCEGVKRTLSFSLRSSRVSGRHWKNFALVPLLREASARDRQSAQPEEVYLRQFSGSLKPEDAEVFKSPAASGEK

The experiment addresses T1, human capsaicin receptor (Homo sapiens, UniProt Q8NER1).
T1 construct: A cDNA encoding full length human capsaicin receptor recited in U.S. Pat. No. 6,482,611 was subcloned in the plasmid pBK-CMV; expressed in transfected cells
As to the kind of experiment: Calcium mobilization assay (Example 6). The experiment is classed as cell-based. The following applies: concentration required to provide a 50% decrease in the fluorescence response of cells exposed to one IC50 of capsaicin. A digest of the protocol: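 HEK293 clonal lines stably expressing full-length human capsaicin receptor, Fluo-3 AM loaded in KRH buffer pH 7.4. Compounds (final 1-5 μM) preincubated 0.5-6 h at room temperature in the dark, then capsaicin added at its predetermined IC50 concentration. FLIPR calcium signal at 30-60 s; IC50 = antagonist concentration giving 50% decrease.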
As to `Cc1ccc(Nc2ccnc3nc(-c4ncccc4C(F)(F)F)ccc23)nc1` [Compound 140, N-(5-methylpyridin-2-yl)-7-[3-(trifluoromethyl)pyridin-2-yl]-1,8-naphthyridin-4-amine], the IC50 – broadly, the concentration that inhibits the measured activity by half – is not above 1000 nM.

For the compound `CC(=O)c1ccc(Nc2ccnc3nc(-c4ncccc4C(F)(F)F)ccc23)nc1` [Compound 141, 1-[6-({7-[3-(trifluoromethyl)pyridin-2-yl]-1,8-naphthyridin-4-yl}amino)pyridin-3-yl]ethanone], the IC50 was not above 1000 nM.

As to `FC(F)(F)c1ccc(Nc2ccnc3nc(-c4ncccc4C(F)(F)F)ccc23)cn1` [Compound 142, 7-[3-(trifluoromethyl)pyridin-2-yl]-N-[6-(trifluoromethyl)pyridin-3-yl]-1,8-naphthyridin-4-amine], the IC50 was not above 1000 nM.

Consider `CCc1ccc(Nc2ccnc3nc(-c4ncccc4C(F)(F)F)ccc23)nc1` [Compound 143, N-(5-ethylpyridin-2-yl)-7-[3-(trifluoromethyl)pyridin-2-yl]-1,8-naphthyridin-4-amine], for which the IC50 was not above 1000 nM.

For `Cc1cccnc1-c1ccc2c(Nc3cnc(C(F)(F)F)cn3)ccnc2n1` [Compound 144, 7-(3-methylpyridin-2-yl)-N-[5-(trifluoromethyl)pyrazin-2-yl]-1,8-naphthyridin-4-amine], the IC50 was not above 1000 nM.

Regarding `FC(F)(F)c1cnc(Nc2ccnc3nc(-c4ncccc4Cl)ccc23)nc1` [Compound 145, 7-(3-chloropyridin-2-yl)-N-[5-(trifluoromethyl)pyrimidin-2-yl]-1,8-naphthyridin-4-amine], the half-inhibitory concentration (IC50) was not above 1000 nM.
